In US11040963B2 (priority 2017, dated 2021):

Assays:
[1] = biological target: HA H5 A/Vietnam/1203/04 (Influenza A virus (A/Vietnam/1203/2004(H5N1)), UniProt Q5EP31); experiment: biochemical; settings: Competition binding (AlphaLISA), pIC50 H5 A/Vietnam/1203/04
H5N1 A/Vietnam/1203/04 = experiment: microbe, parasite or virus in culture; type: cell-based, influenza A virus; settings: 96 h, average of repeats; for EC50: Influenza A virus, H5N1, MDCK, read-out: Virus neutralization assay (VNA), pEC50 H5N1 A/Vietnam/1203/04, MDCK cells, 96 h, CPE by ATPlite (converted)
[2] = tested on: H1N1 A/New Caledonia/20/99; experiment: microbe, parasite or virus in culture; type: cell-based, influenza A virus; settings: for EC50: Influenza A virus, H1N1, MDCK, 96 h, read-out: Virus neutralization assay (VNA), pEC50 H1N1 A/New Caledonia/20/99 (converted)
[3] = biological target: HA H1 A/New Caledonia/20/99 (Influenza A virus (A/New Caledonia/20/1999(H1N1)), UniProt Q6WG00); experiment: biochemical; settings: Competition binding (AlphaLISA), pIC50 H1 A/New Caledonia/20/99
[4] = biological target: HA H1 A/California/07/09 (Influenza A virus (A/California/07/2009(H1N1)), UniProt C3W5X2); experiment: biochemical; settings: Competition binding (AlphaLISA), pIC50 H1 A/California/07/09
H1N1 A/California/07/09 = experiment: microbe, parasite or virus in culture; type: cell-based, influenza A virus; settings: for EC50: Influenza A virus, H1N1, MDCK, 96 h, read-out: Virus neutralization assay (VNA), pEC50 H1N1 A/California/07/09 (converted)
in vitro = settings: dog, Cytotoxicity (pCC50) MDCK
H1N1 A/PR/8/34-MA = experiment: microbe, parasite or virus in culture; type: cell-based, influenza A virus; settings: Influenza A virus, MDCK, 96 h, read-out: Virus neutralization assay (VNA), pEC50 H1N1 A/PR/8/34-MA (converted)
MDCK cells = settings: dog

SMILES	IC50 [1] [µM]	EC50 (H5N1 A/Vietnam/1203/04) [µM]	EC50 [2] [µM]	IC50 [3] [µM]	IC50 [4] [µM]	EC50 (H1N1 A/California/07/09) [µM]	CC50 (in vitro) [µM]	EC50 (H1N1 A/PR/8/34-MA) [µM]	Cytotoxicity (pCC50) MDCK (MDCK cells)	Virus neutralization assay (VNA), pEC50 H5N1 A/Vietnam/1203/04 (H5N1 A/Vietnam/1203/04; MDCK cells, CPE by ATPlite)	Virus neutralization assay (VNA), pEC50 H1N1 A/New Caledonia/20/99 [2]	Virus neutralization assay (VNA), pEC50 H1N1 A/California/07/09 (H1N1 A/California/07/09)
COC(=O)[C@@H](c1ccccc1)N1CCN(C(=O)c2cccc(-c3nc4ccc(OC)cc4s3)c2)CC1 [Example 19]	0.2	1.58	0.1	0.0158	0.02	0.251	> 50.1	0.126				
Cc1nnc([C@@H](c2ccccc2)N2CCN(C(=O)c3cccc(-c4nc5cc(C(F)(F)F)ccc5o4)c3)CC2)o1 [Example 27]	1.26	39.8	0.316	0.0501	0.0316	0.316			<4.3			
COC(=O)C(c1ccccc1)N1CCN(C(=O)c2cccc(-c3nc4ccc(OC)cc4s3)c2)CC1 (centres unmarked) [Example 29]	0.251	3.98	0.158	0.0158	0.0251	0.251	39.8	0.126				
COC(=O)[C@@H](c1ccccc1)C1CCN(C(=O)c2cccc(-c3nc4ccc(OC)cc4s3)c2)CC1 [Example 65]	0.631	25.1	0.501	0.0501	0.1	1	39.8	0.631				
COC(=O)C(c1ccccc1)N1CCN(C(=O)c2cccc(-c3ccc(OC)cc3)c2)CC1 (centres unmarked) [Example 83]	2.51			0.2	0.398		39.8	1		4.8	6.2	5.7
O=C(c1cccc(-c2cc3ccccc3o2)c1)N1CCN(Cc2ccccc2)CC1 [Example 85]	3.16	12.6	0.631	0.316	0.631	2.51	10	0.501				
COC(=O)C(c1ccccc1)C1CCN(C(=O)c2cccc(-c3nc4ccc(OC)cc4s3)c2)CC1 (centres unmarked) [Example 105]	2	12.6	1	0.1	0.126	3.16	> 50.1	2				
Cc1nnc([C@@H](c2ccccc2)N2CCN(C(=O)c3cccc(-c4ccc5ccccc5n4)c3)CC2)o1 [Example 112]	6.31	> 5.01	1.26	0.398	0.501	1.58	7.94					
COC(=O)[C@@H](c1ccccc1)N1CCN(C(=O)c2cccc(-c3nc4cc(C(F)(F)F)ccc4o3)c2)[C@H](C(N)=O)C1 [Example 113]	25.1	> 50.1	1.58	0.631	0.501	1.26	> 50.1					
CCOC(=O)[C@@H](c1ccccc1)N1CCN(C(=O)c2cccc(-c3ccc(OC)cc3)c2)CC1 [Example 114]	0.398	31.6	1.26	0.126	0.1	2	3.98	2.51				
COC(=O)C(c1ccccc1)N1CCN(C(=O)C2CCCN(c3nc4ccc(OC)cc4s3)C2)CC1 (centres unmarked) [Example 115]	7.94	> 50.1	1.26	0.316	0.251	2	3.98					
Cc1nc(C(c2ccccc2)N2CCN(C(=O)c3cccc(-c4nc5cc(C(F)(F)F)ccc5o4)c3)CC2)n[nH]1 (centres unmarked) [Example 116]	5.01	> 50.1	1.58	0.398	0.501	1.58	50.1					
COC(=O)[C@H](c1ccccc1)N1CCN(C(=O)c2cccc(-c3nc4cc(C(F)(F)F)ccc4o3)c2)[C@@H](C)C1 [Example 117]	6.31	31.6	1.26	0.1	0.126	2.51	> 50.1					
CNC(=O)N(Cc1ccccc1)C1CCN(C(=O)c2cccc(-c3nc4ccc(OC)cc4s3)c2)CC1 [Example 118]	25.1	31.6	1.26	0.316	0.251	7.94	2					
COC(=O)C(c1ccccc1)N1CCN(C(=O)c2ccnc(-c3nc4cc(C(F)(F)F)ccc4o3)c2)CC1 (centres unmarked) [Example 119]	2	25.1	1.58	0.158	0.158	1	10					
CCOC(=O)C(c1ccccc1)N1CCN(C(=O)c2cccc(-c3ccc(OC)cc3)c2)CC1 (centres unmarked) [Example 120]	2.51	> 50.1	1.58	0.251	0.251	1.26	> 50.1	1				
COC(=O)C(c1ccccc1)N1CCN(C(=O)c2cccc(-c3nc4ccc(OC)cc4[nH]3)c2)CC1 (centres unmarked) [Example 121]	1.58	39.8	1.58	0.126	0.2	3.16	7.94					
COC(=O)C(c1ccncc1)N1CCN(C(=O)c2cccc(-c3nc4ccc(OC)cc4s3)c2)CC1 (centres unmarked) [Example 122]	2.51	12.6	1.58	0.2	0.398	3.98	10					
COC(=O)C(c1ccccc1)C1CCN(C(=O)c2cccc(-c3nc4ccc(OC)cc4[nH]3)c2)CC1 (centres unmarked) [Example 123]	12.6	50.1	1.58	0.501	0.631	5.01	> 50.1	2.51				
COc1ccc2nc(-c3cccc(C(=O)N4CCN([C@@H](c5ccccc5)c5nnc(C)o5)CC4)c3)sc2c1 [Example 124]	0.631	3.98	2	0.0794	0.0631	0.501	15.8					
Cc1nnc(C(c2ccccc2)N2CCN(C(=O)c3cccc(-c4nc5cc(Cl)ccc5o4)c3)CC2)o1 (centres unmarked) [Example 125]	12.6	50.1	2	0.158	0.158	1.58	25.1					
O=C(c1cccc(-c2nc3cc(C(F)(F)F)ccc3o2)c1)N1CCN(C(c2ccccc2)c2nnc(C3CC3)o2)CC1 (centres unmarked) [Example 127]	7.94	20	2	0.251	0.0794	2.51	> 50.1					
Cc1nnc(C(c2ccccc2)N2CCN(C(=O)c3cccc(-c4nc5cccnc5o4)c3)CC2)o1 (centres unmarked) [Example 129]	31.6	> 50.1	2	0.501	0.631	3.98	> 50.1					
COC(=O)C(c1ccccc1)C1CCN(C(=O)c2cccc(-c3ccc(OC)cc3)c2)CC1 (centres unmarked) [Example 130]	10	39.8	2	0.631	1	15.8	39.8	12.6				
COc1ccc2nc(-c3cccc(C(=O)N4CCN(C5(c6ccccc6)CCN(C)C5=O)CC4)c3)sc2c1 (centres unmarked) [Example 131]	39.8	> 50.1	2.51	3.98	3.16	1.58	20					
COC(=O)C(c1ccccc1)N1CCCN(C(=O)c2cccc(-c3nc4ccc(OC)cc4s3)c2)CC1 (centres unmarked) [Example 132]	15.8	> 50.1	2.51	0.631	0.794	39.8	> 50.1					
Cn1nnc([C@@H](c2ccccc2)N2CCN(C(=O)c3cc(-c4nc5cc(OC(F)(F)F)ccc5o4)ccn3)CC2)n1 [Example 133]	0.251	0.631	0.0251	0.01	0.0158	0.0631	> 50.1					
Cc1nc([C@@H](c2ccccc2)N2CCN(C(=O)c3cc(-c4nc5cc(OC(F)(F)F)ccc5o4)ccn3)CC2)n[nH]1 [Example 134]	0.158	3.98	0.251	0.0158	0.0398	0.631	> 50.1					
